# Source: US20250114473A1, “COMPOUND FOR CONJUGATION, CONJUGATE AND PHARMACEUTICAL COMPOSITION COMPRISING THE SAME” (priority 2023, published 2025)
# Numbered stars: 1 amine (or outer) side, 2 acyl side, 3 side chain; on linkers, the order of the positions; unused ones are H or OH. Square brackets hold non-standard residues; d marks the D form. Peptide text beside a SMILES is read from it. * marks the point of attachment. Dolaproine = CO[C@@H]([C@@H]1CCCN1)[C@@H](C)C(=O)O; Dil = CC[C@H](C)[C@H](NC)[C@@H](CC(=O)O)OC; PABC = O=C(OCc1ccc(N[*:1])cc1)[*:2]; X1 = C[C@@H](N*)[C@@H](O)c1ccccc1; Cit = NC(=O)NCCC[C@H](N)C(=O)O; NMeV = CN[C@H](C(=O)O)C(C)C
# What was measured:
# [1] = Water solubility testing (dissolved with minimal DMSO, precipitated by addition of water); assay type: physicochemical; conditions: precipitated by addition of water to DMSO solution
# Method: Briefly, the moiety-compound conjugates was dissolved with minimal DMSO and precipitated by the addition of water. […] However, Entry 5 and Entry 4 are conjugates with two-arm, with no PEG linker or two PEG4 linker, respectively, which were precipitated in 19.5% and 30.8% Water/DMSO. Thus, the results of water solubility of the conjugates are consistent with the inventors' hypothesis.
# [2] = Plasma stability, released drug by LC-MS/MS; assay type: in vitro ADME; conditions: for drug release trend: over a 13-day period; for free drug percentage: 13 days
# Text: To further advance the research, a set of the compounds in the present disclosure, FL-F21N-L111-P204 and FL-F21N-L106-P204, each containing single-arm and dual-arm respectively, was selected for plasma stability testing in both humans and rats. These were then compared in detail with commercially available Deruxtecan (Dxd) and VC-PAB-MMAE to evaluate their stability and safety in blood.
# These calculations were based on standard drugs (e.g., Eribulin, MMAE, Dxd) and they were accurately measured using liquid chromatography-tandem mass spectrometry (LC-MS/MS). […] This trend provides an in-depth understanding of the drug release dynamics.
# These experimental results provide crucial data supporting the efficacy and safety of the compounds in the present disclosure.
# MCF-7 (HER2 1+) [3] = experiment: Anti-proliferation assay (CCK-8) of linker-drug combinations, drugs and cleaved products; assay type: cell-based
# Method: (§1) Additionally, a series of experiments were conducted, including anti-proliferation assays for linker-drug combinations (i.e. the compounds in the present disclosure), the drugs thereof, and the cleaved products thereof after cleavage by the Cathepsin B enzyme in cells. These assays were performed using HER2-expressing cell lines. MCF-7 and SK-BR-3 cell lines were seeded at a density of 1.5×10^3 to 1×10^4 cells/well in 90 μL of the corresponding culture medium, and cultured at 37° C. in a CO2 incubator (Forma/ThermoFisher (370) or BINDER (CB130)) with a range of dilutions (0-1000 nM) of the compounds in the present disclosure, the drugs thereof, and the cleaved products thereof. Cell density for each sample was recorded by measuring the absorbance of Cell Counting Kit-8 (CCK-8) at 450 nm. Data analysis was performed using GraphPad Prism 8.0.1, and the best-fit four-parameter dose-response curve was selected. Half Maximal Inhibitory Concentration (IC50) values were determined via nonlinear regression; consistency between batches was assessed using One-way ANOVA. The relevant experimental results are detailed in Table 4. […] Such reduced toxicity of the linker-drug combinations (i.e, the compounds in the present disclosure) offers significant advantages in moiety-drug conjugate applications, including better biocompatibility, enhanced therapeutic efficacy, and greater dosing flexibility.
# SK-BR-3 (HER2 3+) [4] = experiment: as above; assay type: cell-based; conditions: 0-1000 nM
# Method: as §1
# MCF-7 (HER2 1+) [5] = experiment: Cell toxicity testing of moiety-drug conjugates (CCK-8); assay type: cell-based
# Method: (§2) The experiment involved optimizing seeding densities (1.5×10^3 to 1.5×10^4 cells/well) for each cell line (SK-BR-3, MCF-7, MDA-MB-231, MDA-MB-436) in 90 IL, of culture medium per well in a 96-well plate for 2-hour incubation. Next, 10 μL of a series of diluted ADC solutions (0-500 nM) were added to each well. The concentration of each ADC solution and measurements at four time points (24, 48, 72, and 96 hours) were conducted in triplicate. […] Data analysis was performed with GraphPad Prism 8.0.1, employing a four-parameter logistic curve-fit program.
# MDA-MB-436 (HER2−) = experiment: as above; assay type: cell-based; conditions: 0-500 nM
# Method: as §2
# SK-BR-3 (HER2 3+) [6] = experiment: as above; assay type: cell-based; conditions: 0-500 nM
# Method: as §2
# MDA-MB-231 (HER2−) = experiment: as above; assay type: cell-based; conditions: 0-500 nM
# Method: as §2
Compound,Precipitation in % Water/DMSO [1] [%],IC50 (MCF-7 (HER2 1+) [3]; 0-1000 nM) [nM],IC50 (SK-BR-3 (HER2 3+) [4]) [nM],IC50 (MCF-7 (HER2 1+) [5]; 0-500 nM) [nM],IC50 (MDA-MB-436 (HER2−)) [nM],IC50 (SK-BR-3 (HER2 3+) [6]) [nM],IC50 (MDA-MB-231 (HER2−)) [nM],also measured
"C=C1C[C@@H]2CC[C@@]34CC5O[C@H]6C(O3)[C@H]3O[C@H](CC[C@@H]3O[C@H]6[C@H]5O4)CC(=O)C[C@@H]3[C@@H](OC)[C@@H](C[C@H](O)CNC(=O)OCCOCCOCCOCCNC(=O)OCc4ccc(NC(=O)[C@H](CCCNC(N)=O)NC(=O)[C@@H](NC(=O)CCCCCN5C(=O)C=CC5=O)C(C)C)cc4)O[C@H]3CC3O[C@@H](CCC1O2)C[C@@H](C)C3=C [FL-F21N-L111-P204, Mal-Val-Cit-PAB-PEG4-Eribulin]",24.5,,,,,,,"drug release trend ([2]; human plasma): stable drug release trends; drug release trend ([2]; rat plasma): stable drug release trends; IC50 (MCF-7 (HER2 1+) [3]; Homo sapiens, MCF7, 0-1000 nM): 45.5 nM; IC50 (SK-BR-3 (HER2 3+) [4]; Homo sapiens): 30.8 nM"
"C=C1C[C@@H]2CC[C@@]34CC5O[C@H]6[C@@H](O3)[C@H]3O[C@H](CC[C@@H]3O[C@H]6C5O4)CC(=O)C[C@H]3C(C[C@H]4OC(CC[C@@H]1O2)C[C@@H](C)C4=C)O[C@H](C[C@H](O)CNC(=O)OCCOCCOCCOCCOCCOCCOCCOCCOCCOCCOCCOCCNC(=O)OCc1ccc(NC(=O)[C@H](CCCNC(N)=O)NC(=O)[C@@H](NC(=O)CCCCCN2C(=O)C=CC2=O)C(C)C)cc1)[C@@H]3OC (stereo partly drawn) [FL-F21N-L162-P204, Mal-Val-Cit-PEG12-Eribulin]",31.5,,,,,,,
"C=C1C[C@@H]2CC[C@@]34CC5O[C@H]6[C@@H](O3)[C@H]3O[C@H](CC[C@@H]3O[C@H]6C5O4)CC(=O)C[C@H]3C(C[C@H]4OC(CC[C@@H]1O2)C[C@@H](C)C4=C)O[C@H](C[C@H](O)CNC(=O)OCCOCCOCCOCCOCCOCCOCCOCCOCCOCCOCCOCCOCCOCCOCCOCCOCCOCCOCCOCCOCCOCCOCCOCCNC(=O)OCc1ccc(NC(=O)[C@H](CCCNC(N)=O)NC(=O)[C@@H](NC(=O)CCCCCN2C(=O)C=CC2=O)C(C)C)cc1)[C@@H]3OC (stereo partly drawn) [FL-F21N-L163-P204, Mal-Val-Cit-PEG24-Eribulin]",38.9,,,,,,,
"C=C1C[C@@H]2CC[C@@]34C[C@H]5O[C@H]6[C@@H](O3)[C@H]3O[C@H](CC[C@@H]3O[C@H]6[C@H]5O4)CC(=O)C[C@@H]3[C@@H](OC)[C@@H](C[C@H](O)CN)O[C@H]3C[C@H]3O[C@@H](CC[C@@H]1O2)C[C@@H](C)C3=C [P204, Eribulin, reference compound]",,,,,,,,"IC50 (MCF-7 (HER2 1+) [3]; Homo sapiens, MCF7, 0-1000 nM): 0.337 nM; IC50 (SK-BR-3 (HER2 3+) [4]; Homo sapiens): 0.244 nM; IC50 (MCF-7 (HER2 1+) [5]; Homo sapiens, MCF7, 0-500 nM): 0.337 nM; IC50 (MDA-MB-436 (HER2−); Homo sapiens): 1.28 nM; IC50 (SK-BR-3 (HER2 3+) [6]; Homo sapiens): 0.244 nM; IC50 (MDA-MB-231 (HER2−); Homo sapiens): 2.07 nM"
"CC[C@H](C)[C@@H]([C@@H](CC(=O)N1CCC[C@H]1[C@H](OC)[C@@H](C)C(=O)N[C@H](C)[C@@H](O)c1ccccc1)OC)N(C)C(=O)[C@@H](NC(=O)[C@H](C(C)C)N(C)C(=O)OCc1ccc(NC(=O)[C@H](CCCNC(N)=O)NC(=O)[C@@H](N)C(C)C)cc1)C(C)C [VC-PAB-MMAE, reference compound] (H-V[Cit][PABC][NMeV]V[Dil][Dolaproine]-X1)",,,,,,,,free drug percentage ([2]; human plasma): 0.56%; free drug percentage ([2]; rat plasma): 5.03%
"Deruxtecan [L155-P209 (Deruxtecan), reference compound]",,512,432,,,,,free drug percentage ([2]; human plasma): 5.19%; free drug percentage ([2]; rat plasma): 0.70%
"Dxd [P209, reference compound]",,9.53,5.51,9.53,5.12,5.51,135,
Mal-Val-Cit-PAB-(Eribulin)2 [FL-F21N-L107-P204],19.5,14.2,9.24,,,,,
Mal-Val-Cit-PAB-(PEG4-Eribulin)2 [FL-F21N-L106-P204],30.8,26.3,13,,,,,free drug percentage ([2]; human plasma): 2.74%; drug release trend ([2]; human plasma): stable drug release trends; free drug percentage ([2]; rat plasma): 3.50%; drug release trend ([2]; rat plasma): stable drug release trends
Trastuzumab-Mal-Val-Cit-PAB-(Eribulin)2 [A701-L107-P204-D08],,,,0.0229,,0.0172,,
Trastuzumab-Mal-Val-Cit-PAB-(PEG4-Eribulin)2 [A701-L106-P204-D08],,,,0.0229,14.6,0.0216,75.2,
Trastuzumab-Mal-Val-Cit-PAB-PEG4-Eribulin [A701-L111-P204-D04],,,,3.83,> 250,0.012,148,
Trastuzumab-Mal-Val-Cit-PAB-PEG4-Eribulin [A701-L111-P204-D08],,,,0.045,33,0.012,> 250,
